Assay results: US20250228239A1, “MOLECULES HAVING PESTICIDAL UTILITY, AND INTERMEDIATES, COMPOSITIONS, AND PROCESSES, RELATED THERETO” (priority 2024, published 2025)

Columns and labels:
Type in all cases: in vivo
[1] = test system: Beet Armyworm (Spodoptera exigua, LAPHEG); assay: Bioassays on Beet Armyworm (BAW), 128-well diet tray assay; conditions: Spodoptera exigua; Beet Armyworm, Table ABC / ABC-DP rating; read-out: BAW rating
In short: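 One to five second-instar larvae per well on artificial diet surface-treated with 50 μg/cm^2 test molecule (applied in 90:10 acetone-water, dried), eight wells per compound. Trays held vented at 25° C., 14:10 light-dark for five to seven days; percent mortality averaged over the eight wells.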

[2] = test system: Cabbage Looper (Trichoplusia ni, TRIPNI); assay: Bioassays on Cabbage Looper (CL), 128-well diet tray assay; conditions: Trichoplusia ni; Cabbage Looper, Table ABC / ABC-DP rating; read-out: CL rating
In short: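 Test molecule was dissolved in 90:10 acetone-water, applied to artificial diet at 50 μg/cm^2 and allowed to dry. Second-instar larvae were then added, one to five per well, and trays held at 25° C for five to seven days before mortality was scored and averaged.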

[3] = test system: Yellow Fever Mosquito (Aedes aegypti, AEDSAE); conditions: Yellow Fever Mosquito, Table ABC / ABC-DP rating
In short: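 Larvae ~1 day old, in liver powder/water; compound from 4000 ppm DMSO stock diluted with water/acetone (90:10); 6 reps; lidded, RT, 3 d; mortality scored per well, rated.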

Compound	pest or weed control at 50 µg/cm2 [1]	pest or weed control at 50 µg/cm2 [2]	YFM rating [3]
CC(OC(F)(F)F)C(=O)Nc1c(F)ccc(NC(=O)c2cc(NC(=O)[C@H]3[C@H](c4ccc(F)c(Cl)c4)C3(Cl)Cl)ccc2Cl)c1F (stereo partly drawn) [F1769, 2-Chloro-5-((1R,3R)-2,2-dichloro-3-(3-chloro-4-fluorophenyl)cyclopropane-1-carboxamido)-N-(2,4-difluoro-3-(2-(trifluoromethoxy)propanamido)phenyl)benzamide]	50 to 100%	50 to 100%	A (80–100)
CC(OC(F)(F)F)C(=O)Nc1c(F)ccc(NC(=O)c2cc(NC(=O)[C@H]3[C@H](c4ccc(F)c(C(F)(F)F)c4)C3(Cl)Cl)ccc2Cl)c1F (stereo partly drawn) [F1771, 2-Chloro-5-((1R,3R)-2,2-dichloro-3-(4-fluoro-3-(trifluoromethyl)phenyl)cyclopropane-1-carboxamido)-N-(2,4-difluoro-3-(2-(trifluoromethoxy)propanamido)phenyl)benzamide]	50 to 100%	50 to 100%	A (80–100)
O=C(COC(F)(F)F)Nc1c(F)ccc(NC(=O)c2cc(NC(=O)[C@H]3[C@H](c4cccc(C(F)(F)F)c4)C3(Cl)Cl)ccc2Cl)c1F [F1774, 2-Chloro-5-((1R,3R)-2,2-dichloro-3-(3-(trifluoromethyl)phenyl)cyclopropane-1-carboxamido)-N-(2,4-difluoro-3-(2-(trifluoromethoxy)acetamido)phenyl)benzamide]	50 to 100%	50 to 100%	A (80–100)
CC(OC(F)(F)F)C(=O)Nc1c(F)ccc(NC(=O)c2cc(NC(=O)[C@H]3[C@H](c4cccc(C(F)(F)F)c4)C3(Cl)Cl)ccc2Cl)c1F (stereo partly drawn) [F1775, 2-Chloro-5-((1R,3R)-2,2-dichloro-3-(3-(trifluoromethyl)phenyl)cyclopropane-1-carboxamido)-N-(2,4-difluoro-3-(2-(trifluoromethoxy)propanamido)phenyl)benzamide]	50 to 100%	50 to 100%	A (80–100)
CC(C)(C)OC(=O)N(C(=O)OC(C)(C)C)c1c(F)ccc(NC(=O)c2cc(NC(=O)[C@H]3[C@H](c4ccc(F)c(Br)c4)C3(Cl)Cl)ccc2Cl)c1F [F1776, tert-Butyl N-[3-[[5-[[(1R,3R)-3-(3-bromo-4-fluoro-phenyl)-2,2-dichloro-cyclopropanecarbonyl]amino]-2-chloro-benzoyl]amino]-2,6-difluoro-phenyl]-N-tert-butoxycarbonyl-carbamate]	50 to 100%	50 to 100%	A (80–100)
O=C(COC(F)(F)F)Nc1c(F)ccc(NC(=O)c2cc(NC(=O)[C@H]3[C@H](c4ccc(F)c(Br)c4)C3(Cl)Cl)ccc2Cl)c1F [F1780, 5-((1R,3R)-3-(3-Bromo-4-fluorophenyl)-2,2-dichlorocyclopropane-1-carboxamido)-2-chloro-N-(2,4-difluoro-3-(2-(trifluoromethoxy)acetamido)phenyl)benzamide]	50 to 100%	50 to 100%	A (80–100)
CC(OC(F)(F)F)C(=O)Nc1c(F)ccc(NC(=O)c2cc(NC(=O)[C@H]3[C@H](c4ccc(F)c(Br)c4)C3(Cl)Cl)ccc2Cl)c1F (stereo partly drawn) [F1781, 5-((1R,3R)-3-(3-Bromo-4-fluorophenyl)-2,2-dichlorocyclopropane-1-carboxamido)-2-chloro-N-(2,4-difluoro-3-(2-(trifluoromethoxy)propanamido)phenyl)benzamide]	50 to 100%	50 to 100%	A (80–100)
O=C(Nc1ccc(F)c(NC(=O)C2(F)OC(F)(F)C(F)(F)C2(F)F)c1F)c1cc(NC(=O)[C@H]2[C@H](c3ccc(F)c(C(F)(F)F)c3)C2(Cl)Cl)ccc1Cl (stereo partly drawn) [F1782, N-(3-(2-Chloro-5-((1R,3R)-2,2-dichloro-3-(4-fluoro-3-(trifluoromethyl)phenyl)cyclopropane-1-carboxamido)benzamido)-2,6-difluorophenyl)-2,3,3,4,4,5,5-heptafluorotetrahydrofuran-2-carboxamide]	50 to 100%	50 to 100%	A (80–100)
CCN(C(=O)COC(F)(F)F)c1c(F)ccc(NC(=O)c2cc(NC(=O)[C@H]3[C@H](c4ccc(F)c(C(F)(F)F)c4)C3(Cl)Cl)ccc2Cl)c1F [F1789, 2-Chloro-5-((1R,3R)-2,2-dichloro-3-(4-fluoro-3-(trifluoromethyl)phenyl)cyclopropane-1-carboxamido)-N-(3-(N-ethyl-2-(trifluoromethoxy)acetamido)-2,4-difluorophenyl)benzamide]	50 to 100%	50 to 100%	A (80–100)
O=C(COC(F)F)Nc1c(F)ccc(NC(=O)c2cc(NC(=O)[C@H]3[C@H](c4ccc(F)c(C(F)(F)F)c4)C3(Cl)Cl)ccc2Cl)c1F [F1790, 2-Chloro-5-((1R,3R)-2,2-dichloro-3-(4-fluoro-3-(trifluoromethyl)phenyl)cyclopropane-1-carboxamido)-N-(3-(2-(difluoromethoxy)acetamido)-2,4-difluorophenyl)benzamide]	50 to 100%	50 to 100%	A (80–100)
CN(C(=O)c1cc(NC(=O)[C@H]2[C@H](c3ccc(Cl)c(Cl)c3)C2(Cl)Cl)ccc1Cl)c1ccc(F)c(NC(=O)C(F)(F)F)c1F [F1792, 2-Chloro-5-((1R,3R)-2,2-dichloro-3-(3,4-dichlorophenyl)cyclopropane-1-carboxamido)-N-(2,4-difluoro-3-(2,2,2-trifluoroacetamido)phenyl)-N-methylbenzamide]	50 to 100%	50 to 100%	A (80–100)
CN(C(=O)c1cc(NC(=O)[C@H]2[C@H](c3ccc(Cl)c(Cl)c3)C2(Cl)Cl)ccc1Cl)c1ccc(F)c(NC(=O)COC(F)(F)F)c1F [F1793, 2-Chloro-5-((1R,3R)-2,2-dichloro-3-(3,4-dichlorophenyl)cyclopropane-1-carboxamido)-N-(2,4-difluoro-3-(2-(trifluoromethoxy)acetamido)phenyl)-N-methylbenzamide]	50 to 100%	50 to 100%	A (80–100)
CCOC(C)C(=O)Nc1c(F)ccc(N(C)C(=O)c2cc(NC(=O)[C@H]3[C@H](c4ccc(Cl)c(Cl)c4)C3(Cl)Cl)ccc2Cl)c1F (stereo partly drawn) [F1794, 2-Chloro-5-((1R,3R)-2,2-dichloro-3-(3,4-dichlorophenyl)cyclopropane-1-carboxamido)-N-(3-(2-ethoxypropanamido)-2,4-difluorophenyl)-N-methylbenzamide]	50 to 100%	50 to 100%	B (More than 0 – Less than 80)
CN(C(=O)c1cc(NC(=O)[C@H]2[C@H](c3ccc(F)c(C(F)(F)F)c3)C2(Cl)Cl)ccc1Cl)c1ccc(F)c(NC(=O)C(F)(F)F)c1F [F1795, 2-Chloro-5-((1R,3R)-2,2-dichloro-3-(4-fluoro-3-(trifluoromethyl)phenyl)cyclopropane-1-carboxamido)-N-(2,4-difluoro-3-(2,2,2-trifluoroacetamido)phenyl)-N-methylbenzamide]	50 to 100%	50 to 100%	A (80–100)
CN(C(=O)c1cc(NC(=O)[C@H]2[C@H](c3ccc(F)c(C(F)(F)F)c3)C2(Cl)Cl)ccc1Cl)c1ccc(F)c(NC(=O)COC(F)(F)F)c1F [F1796, 2-Chloro-5-((1R,3R)-2,2-dichloro-3-(4-fluoro-3-(trifluoromethyl)phenyl)cyclopropane-1-carboxamido)-N-(2,4-difluoro-3-(2-(trifluoromethoxy)acetamido)phenyl)-N-methylbenzamide]	50 to 100%	50 to 100%	A (80–100)
CCOC(C)C(=O)Nc1c(F)ccc(N(C)C(=O)c2cc(NC(=O)[C@H]3[C@H](c4ccc(F)c(C(F)(F)F)c4)C3(Cl)Cl)ccc2Cl)c1F (stereo partly drawn) [F1797, 2-Chloro-5-((1R,3R)-2,2-dichloro-3-(4-fluoro-3-(trifluoromethyl)phenyl)cyclopropane-1-carboxamido)-N-(3-(2-ethoxypropanamido)-2,4-difluorophenyl)-N-methylbenzamide]	50 to 100%	50 to 100%	A (80–100)
CN(C(=O)c1cc(NC(=O)[C@H]2[C@H](c3ccc(F)c(C(F)(F)F)c3)C2(Cl)Cl)ccc1Cl)c1ccc(F)c(NC(=O)C2CCCO2)c1F (stereo partly drawn) [F1798, N-(3-(2-Chloro-5-((1R,3R)-2,2-Dichloro-3-(4-fluoro-3-(trifluoromethyl)phenyl)cyclopropane-1-carboxamido)-N-methylbenzamido)-2,6-difluorophenyl)tetrahydrofuran-2-carboxamide]	50 to 100%	50 to 100%	B (More than 0 – Less than 80)
CC(=O)Nc1c(F)ccc(N(C)C(=O)c2cc(NC(=O)[C@H]3[C@H](c4ccc(F)c(C(F)(F)F)c4)C3(Cl)Cl)ccc2Cl)c1F [F1799, N-(3-Acetamido-2,4-difluorophenyl)-2-chloro-5-((1R,3R)-2,2-dichloro-3-(4-fluoro-3-(trifluoromethyl)phenyl)cyclopropane-1-carboxamido)-N-methylbenzamide]	50 to 100%	50 to 100%	A (80–100)
